According to patent US8153767B2 (priority 2006, dated 2012):
In brackets after ≈: the same amount, converted by molar mass.

Key:
[1] = system: mouse antiserum (aflatoxin B1 hapten immunogen)
[2] = system: monoclonal antibody useful for detecting all aflatoxins (JP-A 4-360695); conditions: cited from earlier work
[3] = system: rabbit antiserum (aflatoxin B1 hapten immunogen)
[4] = system: antibody AF-1 (JP-A 63-219394); conditions: cited from earlier work

Compound	IC50 [1] [ng/mL]	crossreactivities in terms of IC50 [2] [ng/mL]	IC50 [3] [ng/mL]	ability to bind to G1 relative to its ability to bind to B1 or B2 [4]
COc1cc2c(c3oc(=O)c4c(c13)CCC4=O)C1C=COC1O2 (stereo not drawn) [Aflatoxin B1]	0.07 (≈ 0.224 nM)	0.44	0.07 (≈ 0.224 nM)	
COc1cc2c(c3oc(=O)c4c(c13)CCC4=O)C1CCOC1O2 (stereo not drawn) [Aflatoxin B2]	1.5 (≈ 4.77 nM)	2.1	1.7 (≈ 5.41 nM)	
COc1cc2c(c3oc(=O)c4c(c13)CCOC4=O)C1C=COC1O2 (stereo not drawn) [Aflatoxin G1]	0.6 (≈ 1.83 nM)	2.4	0.63 (≈ 1.92 nM)	1/10
COc1cc2c(c3oc(=O)c4c(c13)CCOC4=O)C1CCOC1O2 (stereo not drawn) [Aflatoxin G2]	16 (≈ 48.4 nM)	5.2	18 (≈ 54.5 nM)	
COc1cc2c(c3oc(=O)c4c(c13)CCC4=O)C1(O)C=COC1O2 (stereo not drawn) [Aflatoxin M1]	11 (≈ 33.5 nM)		14 (≈ 42.6 nM)	
